According to ChEMBL document CHEMBL2413072, “Synthesis and in vitro anticancer studies of novel C-2 arylidene congeners of lantadenes” (2013):

Legend:
Format in all cases: functional
[1] = tested on: KM12; experiment: Growth inhibition of human KM12 cells by sulforhodamine B assay
[2] = tested on: NCI-H322M; experiment: Growth inhibition of human NCI-H322M cells by sulforhodamine B assay
[3] = tested on: NCI-H23; experiment: Growth inhibition of human NCI-H23 cells by sulforhodamine B assay
[4] = tested on: CCRF-CEM; experiment: Growth inhibition of human CCRF-CEM cells by sulforhodamine B assay
[5] = tested on: UACC-257; experiment: Growth inhibition of human UACC257 cells assessed as cell growth at 10^-8 M by sulforhodamine B assay; conditions: read-out: Activity
[6] = tested on: SK-MEL-28; experiment: Growth inhibition of human SK-MEL-28 cells assessed as cell growth at 10^-8 M by sulforhodamine B assay; conditions: read-out: Activity
[7] = tested on: SK-MEL-2; experiment: Growth inhibition of human SK-MEL-2 cells assessed as cell growth at 10^-8 M by sulforhodamine B assay; conditions: read-out: Activity
[8] = tested on: M14; experiment: Growth inhibition of human M14 cells assessed as cell growth at 10^-8 M by sulforhodamine B assay; conditions: read-out: Activity
[9] = tested on: U-251; experiment: Growth inhibition of human U251 cells assessed as cell growth at 10^-8 M by sulforhodamine B assay; conditions: read-out: Activity
[10] = tested on: HOP-92; experiment: Growth inhibition of human HOP92 cells assessed as cell growth at 10^-8 M by sulforhodamine B assay; conditions: read-out: Activity
[11] = tested on: CCRF-CEM; experiment: Growth inhibition of human CCRF-CEM cells assessed as cell growth at 10^-8 M by sulforhodamine B assay; conditions: read-out: Activity
[12] = tested on: BT-549; experiment: Growth inhibition of human BT549 cells by sulforhodamine B assay
[13] = tested on: PC-3; experiment: Growth inhibition of human PC3 cells by sulforhodamine B assay
[14] = tested on: CAKI-1; experiment: Growth inhibition of human CAKI-1 cells by sulforhodamine B assay
[15] = tested on: OVCAR-3; experiment: Growth inhibition of human OVCAR3 cells by sulforhodamine B assay
[16] = tested on: SNB-75; experiment: Growth inhibition of human SNB75 cells by sulforhodamine B assay
[17] = tested on: A498; experiment: Growth inhibition of human A498 cells assessed as cell growth at 10^-4 M by sulforhodamine B assay; conditions: read-out: Activity
[18] = tested on: OVCAR-4; experiment: Growth inhibition of human OVCAR4 cells assessed as cell growth at 10^-4 M by sulforhodamine B assay; conditions: read-out: Activity
[19] = tested on: IGROV-1; experiment: Growth inhibition of human IGROV1 cells assessed as cell growth at 10^-4 M by sulforhodamine B assay; conditions: read-out: Activity
[20] = tested on: SF-295; experiment: Growth inhibition of human SF295 cells assessed as cell growth at 10^-4 M by sulforhodamine B assay; conditions: read-out: Activity
[21] = tested on: HT-29; experiment: Growth inhibition of human HT-29 cells assessed as cell growth at 10^-4 M by sulforhodamine B assay; conditions: read-out: Activity
[22] = tested on: CCRF-CEM; experiment: Growth inhibition of human CCRF-CEM cells assessed as cell growth at 10^-4 M by sulforhodamine B assay; conditions: read-out: Activity
[23] = tested on: 786-0; experiment: Growth inhibition of human 786-0 cells assessed as cell growth at 10^-6 M by sulforhodamine B assay; conditions: read-out: Activity
[24] = tested on: SK-MEL-28; experiment: Growth inhibition of human SK-MEL-28 cells assessed as cell growth at 10^-6 M by sulforhodamine B assay; conditions: read-out: Activity
[25] = tested on: SK-MEL-2; experiment: Growth inhibition of human SK-MEL-2 cells assessed as cell growth at 10^-6 M by sulforhodamine B assay; conditions: read-out: Activity
[26] = tested on: SF-295; experiment: Growth inhibition of human SF295 cells assessed as cell growth at 10^-6 M by sulforhodamine B assay; conditions: read-out: Activity
[27] = tested on: HCT-15; experiment: Growth inhibition of human HCT15 cells assessed as cell growth at 10^-6 M by sulforhodamine B assay; conditions: read-out: Activity
[28] = tested on: BT-549; experiment: Growth inhibition of human BT549 cells assessed as cell growth at 10^-7 M by sulforhodamine B assay; conditions: read-out: Activity
[29] = tested on: DU-145; experiment: Growth inhibition of human DU145 cells assessed as cell growth at 10^-7 M by sulforhodamine B assay; conditions: read-out: Activity
[30] = tested on: A498; experiment: Growth inhibition of human A498 cells assessed as cell growth at 10^-7 M by sulforhodamine B assay; conditions: read-out: Activity
[31] = tested on: OVCAR-5; experiment: Growth inhibition of human OVCAR5 cells assessed as cell growth at 10^-7 M by sulforhodamine B assay; conditions: read-out: Activity
[32] = tested on: IGROV-1; experiment: Growth inhibition of human IGROV1 cells assessed as cell growth at 10^-7 M by sulforhodamine B assay; conditions: read-out: Activity
[33] = tested on: UACC-62; experiment: Growth inhibition of human UACC62 cells assessed as cell growth at 10^-7 M by sulforhodamine B assay; conditions: read-out: Activity
[34] = tested on: UACC-257; experiment: Growth inhibition of human UACC257 cells assessed as cell growth at 10^-7 M by sulforhodamine B assay; conditions: read-out: Activity
[35] = tested on: SK-MEL-28; experiment: Growth inhibition of human SK-MEL-28 cells assessed as cell growth at 10^-7 M by sulforhodamine B assay; conditions: read-out: Activity
[36] = tested on: SF-539; experiment: Growth inhibition of human SF539 cells assessed as cell growth at 10^-7 M by sulforhodamine B assay; conditions: read-out: Activity
[37] = tested on: COLO 205; experiment: Growth inhibition of human COLO205 cells assessed as cell growth at 10^-7 M by sulforhodamine B assay; conditions: read-out: Activity
[38] = tested on: A549; experiment: Growth inhibition of human A549/ATCC cells assessed as cell growth at 10^-7 M by sulforhodamine B assay; conditions: read-out: Activity
[39] = tested on: SK-OV-3; experiment: Growth inhibition of human SKOV3 cells assessed as cell growth at 10^-8 M by sulforhodamine B assay; conditions: read-out: Activity
[40] = read-out: LC50 (the source's name)
[41] = read-out: pLC50 (the source's name) (converted)

C/C=C(/C)C(=O)O[C@@H]1CC(C)(C)C[C@H]2C3=CC[C@@H]4[C@@]5(C)CC[C@H](O)C(C)(C)[C@@H]5CC[C@@]4(C)[C@]3(C)CC[C@@]12C(=O)O [Reduced Lantadene A]
GI50 ([1]; read-out: GI50): 1.35 µM | TGI ([1]; read-out: TGI): 2.93 µM | GI50 ([1]; read-out: pGI50 (converted)): 1.35 µM | TGI ([1]; read-out: pTGI (converted)): 2.95 µM | GI50 ([2]; read-out: GI50): 1.78 µM | LC50 (50% lethal concentration) ([2]; read-out: LC50): 6.74 µM | TGI ([2]; read-out: TGI): 3.46 µM | GI50 ([2]; read-out: pGI50 (converted)): 1.78 µM | LC50 (50% lethal concentration) ([2]; read-out: pLC50 (converted)): 6.76 µM | TGI ([2]; read-out: pTGI (converted)): 3.47 µM | GI50 ([3]; read-out: GI50): 2.39 µM | CC50 [3, 40]: 91.2 µM | TGI ([3]; read-out: TGI): 5.93 µM | GI50 ([3]; read-out: pGI50 (converted)): 2.4 µM | CC50 [3, 41]: 91.2 µM | TGI ([3]; read-out: pTGI (converted)): 5.89 µM | GI50 ([4]; read-out: GI50): 2.31 µM | CC50 [4, 40]: > 100 µM | TGI ([4]; read-out: TGI): 6.52 µM | GI50 ([4]; read-out: pGI50 (converted)): 2.29 µM | CC50 [4, 41]: > 100 µM | TGI ([4]; read-out: pTGI (converted)): 6.46 µM | growth at 0.01 µM [5]: 93% | growth at 0.01 µM [6]: 90% | growth at 0.01 µM [7]: 107% | growth at 0.01 µM [8]: 100% | growth at 0.01 µM [9]: 96% | growth at 0.01 µM [10]: 91% | growth at 0.01 µM [11]: 98% | GI50 ([12]; read-out: GI50): 1.94 µM | CC50 [12, 40]: 8.53 µM | TGI ([12]; read-out: TGI): 4.06 µM | GI50 ([12]; read-out: pGI50 (converted)): 1.95 µM | CC50 [12, 41]: 8.51 µM | TGI ([12]; read-out: pTGI (converted)): 4.07 µM | GI50 ([13]; read-out: GI50): 1.34 µM | CC50 [13, 40]: 6.01 µM | TGI ([13]; read-out: TGI): 2.84 µM | GI50 ([13]; read-out: pGI50 (converted)): 1.35 µM | CC50 [13, 41]: 6.03 µM | TGI ([13]; read-out: pTGI (converted)): 2.82 µM | GI50 ([14]; read-out: GI50): 2.48 µM | CC50 [14, 40]: 56.3 µM | TGI ([14]; read-out: TGI): 9.08 µM | GI50 ([14]; read-out: pGI50 (converted)): 2.45 µM | CC50 [14, 41]: 56.2 µM | TGI ([14]; read-out: pTGI (converted)): 9.12 µM | GI50 ([15]; read-out: GI50): 1.95 µM | TGI ([15]; read-out: TGI): 3.61 µM | GI50 ([15]; read-out: pGI50 (converted)): 1.95 µM | TGI ([15]; read-out: pTGI (converted)): 3.63 µM | GI50 ([16]; read-out: GI50): 1.77 µM | CC50 [16, 40]: > 100 µM | TGI ([16]; read-out: TGI): 5.37 µM | GI50 ([16]; read-out: pGI50 (converted)): 1.78 µM | CC50 [16, 41]: > 100 µM | TGI ([16]; read-out: pTGI (converted)): 5.37 µM | growth at 100 µM [17]: -74% | growth at 100 µM [18]: -21% | growth at 100 µM [19]: -58% | growth at 100 µM [20]: -57% | growth at 100 µM [21]: -64% | growth at 100 µM [22]: -2% | growth at 1 µM [23]: 97% | growth at 1 µM [24]: 90% | growth at 1 µM [25]: 109% | growth at 1 µM [26]: 81% | growth at 1 µM [27]: 82% | growth at 0.1 µM [28]: 100% | growth at 0.1 µM [29]: 115% | growth at 0.1 µM [30]: 77% | growth at 0.1 µM [31]: 103% | growth at 0.1 µM [32]: 111% | growth at 0.1 µM [33]: 88% | growth at 0.1 µM [34]: 88% | growth at 0.1 µM [35]: 88% | growth at 0.1 µM [36]: 103% | growth at 0.1 µM [37]: 107% | growth at 0.1 µM [38]: 90% | growth at 0.01 µM [39]: 100%
